Results: ChEMBL document CHEMBL3044609, “Synthesis and Acaricidal Activities of New 2-Polyfluorophenylbenzazole Derivatives” (2002)
≈ marks a conversion by molar mass, not a printed value. Calls of active or inactive are those of the source. The rule behind the calls is not given here.

Key:
Tetranychus urticae [1] = test: Acaricidal activity against Tetranychus urticae (two-spotted spider mite) in compound treated snap bean leaves assessed as egg mortality measured after 2 days by leaf disk method; type: functional; details: foliar, 48 h
Tetranychus urticae [2] = test: Acaricidal activity against Tetranychus urticae (two-spotted spider mite) in compound treated snap bean leaves assessed as adult mortality measured after 2 days by leaf disk method; type: functional; details: foliar, 48 h
Tetranychus urticae [3] = test: Acaricidal activity against kelthane-sensitive strain Tetranychus urticae (two-spotted spider mite) in compound treated snap bean leaves assessed as egg mortality measured after 2 days by leaf disk method; type: functional; details: foliar, 48 h
Tetranychus urticae [4] = test: Acaricidal activity against kelthane-sensitive strain Tetranychus urticae (two-spotted spider mite) in compound treated snap bean leaves assessed as adult mortality measured after 2 days by leaf disk method; type: functional; details: foliar, 48 h
Tetranychus urticae [5] = test: Ratio of LC50 for kelthane-resitant strain Tetranychus urticae (two-spotted spider mite) to LC50 for kelthane-sensitive strain Tetranychus urticae (two-spotted spider mite) assessed as egg mortality measured after 2 days by leaf disk method; type: functional
Tetranychus urticae [6] = test: Acaricidal activity against kelthane-resitant strain Tetranychus urticae (two-spotted spider mite) in compound treated snap bean leaves assessed as adult mortality measured after 2 days by leaf disk method; type: functional; details: foliar, 48 h
Tetranychus urticae [7] = test: Ratio of LC50 for kelthane-resitant strain Tetranychus urticae (two-spotted spider mite) to LC50 for kelthane-sensitive strain Tetranychus urticae assessed as adult mortality measured after 2 days by leaf disk method; type: functional
Tetranychus urticae [8] = test: Acaricidal activity against kelthane-resitant strain Tetranychus urticae (two-spotted spider mite) in compound treated snap bean leaves assessed as egg mortality measured after 2 days by leaf disk method; type: functional; details: foliar, 48 h
Tetranychus urticae [9] = test: Acaricidal activity against Tetranychus urticae (two-spotted spider mite) on strawberry plant assessed as average number of adult females mites at 800 fold dilutions measured after 30 days (reference value: 100%); type: functional
Panonychus citri = test: Acaricidal activity against Panonychus citri in compound treated lemon leaf assessed as adult mortality; type: functional, organism-based
Tetranychus urticae [10] = test: Acaricidal activity against Tetranychus urticae (two-spotted spider mite) on strawberry plant assessed as average number of adult females mites at 400 fold dilutions measured after 16 days (reference value: 100%); type: functional
Tetranychus urticae [11] = test: Acaricidal activity against Tetranychus urticae (two-spotted spider mite) on strawberry plant assessed as average number of adult females mites at 400 fold dilutions measured after 23 days (reference value: 100%); type: functional
Tetranychus urticae [12] = test: Acaricidal activity against Tetranychus urticae (two-spotted spider mite) on strawberry plant assessed as average number of adult females mites at 800 fold dilutions measured after 3 days (reference value: 100%); type: functional
Tetranychus urticae [13] = test: Acaricidal activity against Tetranychus urticae (two-spotted spider mite) on strawberry plant assessed as average number of adult females mites at 800 fold dilutions measured after 16 days (reference value: 100%); type: functional
Tetranychus urticae [14] = test: Acaricidal activity against Tetranychus urticae (two-spotted spider mite) on strawberry plant assessed as average number of adult females mites at 800 fold dilutions measured after 8 days (reference value: 100%); type: functional
Tetranychus urticae [15] = test: Acaricidal activity against Tetranychus urticae (two-spotted spider mite) on strawberry plant assessed as average number of adult females mites at 800 fold dilutions measured after 23 days (reference value: 100%); type: functional
Tetranychus urticae [16] = test: Acaricidal activity against Tetranychus urticae (two-spotted spider mite) on strawberry plant assessed as average number of adult females mites at 400 fold dilutions measured after 3 days (reference value: 100%); type: functional
Tetranychus urticae [17] = test: Acaricidal activity against Tetranychus urticae (two-spotted spider mite) on strawberry plant assessed as average number of adult females mites at 400 fold dilutions measured after 8 days (reference value: 100%); type: functional
Tetranychus urticae [18] = test: Acaricidal activity against Tetranychus urticae (two-spotted spider mite) on strawberry plant assessed as average number of adult females mites at 400 fold dilutions measured after 30 days (reference value: 100%); type: functional
Tetranychus urticae [19] = test: Acaricidal activity against Tetranychus urticae (two-spotted spider mite) on strawberry plant assessed as average number of adult females mites at 1000 fold dilutions measured after 16 days (reference value: 100%); type: functional
Tetranychus urticae [20] = test: Acaricidal activity against Tetranychus urticae (two-spotted spider mite) on strawberry plant assessed as average number of adult females mites at 1000 fold dilutions measured after 8 days (reference value: 100%); type: functional
Tetranychus urticae [21] = test: Acaricidal activity against Tetranychus urticae (two-spotted spider mite) on strawberry plant assessed as average number of adult females mites at 1000 fold dilutions measured after 3 days (reference value: 100%); type: functional
Tetranychus urticae [22] = test: Acaricidal activity against Tetranychus urticae (two-spotted spider mite) on strawberry plant assessed as average number of adult females mites at 1000 fold dilutions measured after 30 days (reference value: 100%); type: functional
Tetranychus urticae [23] = test: Acaricidal activity against Tetranychus urticae (two-spotted spider mite) on strawberry plant assessed as average number of adult females mites at 1000 fold dilutions measured after 23 days (reference value: 100%); type: functional

SMILES | LC50 (Tetranychus urticae [1]) [µg/mL] | LC50 (Tetranychus urticae [2]) [µg/mL] | also measured
Cc1ccc2nc(-c3cc(F)c(F)c(Cl)c3F)sc2c1 | 287 (≈ 915 µM) | 155 (≈ 494 µM) | 
Fc1cc(-c2nc3ccccc3s2)c(F)c(F)c1F | 205 (≈ 724 µM) | 102 (≈ 360 µM) | 
c1ccc(-c2nc3ccccc3o2)cc1 [2-PHENYLBENZO[D]OXAZOLE] | > 500 | > 500 | 
Cc1ccc2oc(-c3cc(F)c(F)c(F)c3F)nc2c1 | > 500 | 19 (≈ 67.6 µM) | 
Cc1ccc2nc(-c3cc(F)c(F)c(F)c3F)sc2c1 | 205 (≈ 690 µM) | 75 (≈ 252 µM) | 
Fc1cc(-c2nc3ccc(Br)cc3s2)c(F)c(F)c1F | 555 (≈ 1530 µM) | 93 (≈ 257 µM) | 
OC(c1ccc(Cl)cc1)(c1ccc(Cl)cc1)C(Cl)(Cl)Cl [DICOFOL] |  |  | LC50 (Tetranychus urticae [3]): 80.7 µg/mL (≈ 218 µM); LC50 (Tetranychus urticae [4]): 15.9 µg/mL (≈ 42.9 µM); RatioLC50 (Tetranychus urticae [5]): 1.13; LC50 (Tetranychus urticae [6]): 296 µg/mL (≈ 800 µM); RatioLC50 (Tetranychus urticae [7]): 18.65; LC50 (Tetranychus urticae [8]): 90.9 µg/mL (≈ 245 µM)
Fc1cc(-c2nc3ccccc3o2)c(F)c(Cl)c1F | 257 (≈ 906 µM) | 66 (≈ 233 µM) | 
Fc1cc(-c2nc3ccccc3o2)c(F)c(F)c1F | 351 (≈ 1310 µM) | 151 (≈ 565 µM) | 
Cc1ccc2oc(-c3cc(F)c(F)cc3F)nc2c1 | 173 (≈ 657 µM) | 174 (≈ 661 µM) | 
c1ccc(-c2nc3ccccc3s2)cc1 [2-PHENYLBENZO[D]THIAZOLE] | > 500 | 211 (≈ 999 µM) | 
Fc1cc(-c2nc3cc(Cl)ccc3o2)c(F)c(F)c1F | 202 (≈ 670 µM) | 100 (≈ 332 µM) | 
Cc1ccc2oc(-c3cc(F)c(F)c(Cl)c3F)nc2c1 | 154 (≈ 517 µM) | 35 (≈ 118 µM) | Activity (Tetranychus urticae [9]): 65%; Activity (Panonychus citri): Active; LC50 (Tetranychus urticae [3]): 20.4 µg/mL (≈ 68.5 µM); LC50 (Tetranychus urticae [4]): 71.6 µg/mL (≈ 241 µM); RatioLC50 (Tetranychus urticae [5]): 0.84; Activity (Tetranychus urticae [10]): 71.1%; Activity (Tetranychus urticae [11]): 38.9%; Activity (Tetranychus urticae [12]): 93.7%; Activity (Tetranychus urticae [13]): 75.3%; Activity (Tetranychus urticae [14]): 86.5%; Activity (Tetranychus urticae [15]): 51.4%; LC50 (Tetranychus urticae [6]): 121 µg/mL (≈ 406 µM); RatioLC50 (Tetranychus urticae [7]): 1.69; LC50 (Tetranychus urticae [8]): 17.1 µg/mL (≈ 57.4 µM); Activity (Tetranychus urticae [16]): 93.3%; Activity (Tetranychus urticae [17]): 108.8%; Activity (Tetranychus urticae [18]): 43.9%
Cc1ccc2oc(-c3ccccc3F)nc2c1 | > 500 | 88 (≈ 387 µM) | 
Cc1cc(C)c2oc(-c3cc(F)c(F)c(Cl)c3F)nc2c1 | > 500 | < 31 | 
Cc1ccc2nc(-c3cc(F)c(F)c(Cl)c3F)oc2c1 | > 500 | 48 (≈ 161 µM) | 
Fc1ccc(-c2nc3ccccc3s2)cc1F | > 500 | < 125 | 
Fc1c(F)c(F)c(-c2nc3ccccc3s2)c(F)c1F [2-(PERFLUOROPHENYL)BENZO[D]THIAZOLE] | 124 (≈ 412 µM) | 26 (≈ 86.3 µM) | 
Cc1ccc2oc(-c3ccccc3)nc2c1 | > 500 | > 500 | 
CCc1nn(C)c(C(=O)NCc2ccc(C(C)(C)C)cc2)c1Cl [TEBUFENPYRAD] |  |  | Activity (Tetranychus urticae [19]): 5.6%; Activity (Tetranychus urticae [20]): 7.8%; Activity (Tetranychus urticae [21]): 4.3%; Activity (Tetranychus urticae [22]): 4.5%; Activity (Tetranychus urticae [23]): 13.5%
Fc1cc(-c2nc3ccccc3s2)c(F)c(Cl)c1F | 225 (≈ 751 µM) | 35 (≈ 117 µM) | 
Fc1cc(-c2nc3cc(Cl)ccc3o2)c(F)c(Cl)c1F | 173 (≈ 544 µM) | 37 (≈ 116 µM) | 
Cc1ccc2oc(-c3ccc(F)cc3)nc2c1 | > 500 | > 500 | 
Cc1ccc2oc(-c3cccc(F)c3)nc2c1 | > 500 | 383 (≈ 1690 µM) | 
